Toxic doses and inconclusive results are not listed. Cut-off read from the data, not from the text of the source: active = T/C of 150% or more; inactive = T/C below 125%. Peptide text beside a SMILES is read from it. * marks the point of attachment. Cbz = O=C(OCc1ccccc1)*
Tested on: L1210 leukemia ip in BDF1 mice, survival T/C
Test: NCI In Vivo Anticancer Drug Screen. Data for tumor model L1210 Leukemia (intraperitoneal) in B6D2F1 (BDF1) mice
Details: endpoint: mean survival time, higher = longer survival
How it was run: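 Value reflects the ratio of survival in compound-treated mice to survival in vehicle-treated controls, with both groups carrying the same transplanted tumor.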

[1] = dose: 100.0 mg/kg/injection, schedule: Q01DX001 (ip), vehicle: saline
[2] = dose: 200.0 mg/kg/injection, schedule: Q01DX001 (ip), vehicle: saline
[3] = dose: 400.0 mg/kg/injection, schedule: Q01DX001 (ip), vehicle: saline
[4] = dose: 100.0 mg/kg/injection, schedule: Q04DX002 (ip), vehicle: Klucel (hydroxypropylcellulose) (HPC)
[5] = dose: 200.0 mg/kg/injection, schedule: Q04DX002 (ip), vehicle: Klucel (hydroxypropylcellulose) (HPC)
[6] = dose: 400.0 mg/kg/injection, schedule: Q04DX002 (ip), vehicle: Klucel (hydroxypropylcellulose) (HPC)
[7] = dose: 50.0 mg/kg/injection, schedule: Q01DX001 (ip), vehicle: saline

Measured: T/C

CCSC(SCC)C(OC(=O)c1ccccc1)C(OC(=O)c1ccccc1)C(COC(=O)c1ccccc1)OC(=O)c1ccccc1 (centres undefined)
inactive: dose: 100.0 mg/kg/injection, schedule: Q01DX001 (ip), vehicle: carboxymethylcellulose (CMC) 102 % of control | dose: 200.0 mg/kg/injection, schedule: Q01DX001 (ip), vehicle: carboxymethylcellulose (CMC) 102 % of control | dose: 400.0 mg/kg/injection, schedule: Q01DX001 (ip), vehicle: carboxymethylcellulose (CMC) 96 % of control

N=C(N)Sc1cnc2ccccc2n1
inactive: [1] 95 % of control | [2] 97 % of control | [3] 105 % of control

Cc1ccc(-c2ccc3sc(C)[n+](C)c3c2)cc1
inactive: dose: 100.0 mg/kg/injection, schedule: Q04DX003 (ip), vehicle: saline 92 % of control

CC/C(=C(\CC)c1ccc(OCCOS(=O)(=O)c2ccc(C)cc2)cc1)c1ccc(OCCOS(=O)(=O)c2ccc(C)cc2)cc1
inactive: dose: 6.25 mg/kg/injection, schedule: Q04DX002 (ip), vehicle: saline 101 % of control | dose: 12.5 mg/kg/injection, schedule: Q04DX002 (ip), vehicle: saline 105 % of control | dose: 25.0 mg/kg/injection, schedule: Q04DX002 (ip), vehicle: saline 97 % of control

C=CCOc1c(Br)cc(Br)cc1Br
inactive: dose: 12.5 mg/kg/injection, schedule: Q04DX002 (ip), vehicle: Klucel (hydroxypropylcellulose) (HPC) 96 % of control | dose: 25.0 mg/kg/injection, schedule: Q04DX002 (ip), vehicle: Klucel (hydroxypropylcellulose) (HPC) 100 % of control | dose: 50.0 mg/kg/injection, schedule: Q04DX002 (ip), vehicle: Klucel (hydroxypropylcellulose) (HPC) 86 % of control | [4] 95 % of control | [5] 89 % of control | [6] 95 % of control

O=C(O)CC1(c2ccccc2)OC(=O)c2ccccc21 (centres undefined)
inactive: dose: 50.0 mg/kg/injection, schedule: Q04DX002 (ip), vehicle: saline with Tween-80 92 % of control | dose: 100.0 mg/kg/injection, schedule: Q04DX002 (ip), vehicle: saline with Tween-80 92 % of control | dose: 200.0 mg/kg/injection, schedule: Q04DX002 (ip), vehicle: saline with Tween-80 99 % of control | dose: 400.0 mg/kg/injection, schedule: Q04DX002 (ip), vehicle: saline with Tween-80 89 % of control

CCC(CCl)NC(=O)N(N=O)C(CC)CCl (centres undefined)
inactive: dose: 16.0 mg/kg/injection, schedule: Q01DX001 (ip), vehicle: carboxymethylcellulose (CMC) 96 % of control | dose: 31.0 mg/kg/injection, schedule: Q01DX001 (ip), vehicle: carboxymethylcellulose (CMC) 102 % of control | dose: 62.0 mg/kg/injection, schedule: Q01DX001 (ip), vehicle: carboxymethylcellulose (CMC) 95 % of control | dose: 125.0 mg/kg/injection, schedule: Q01DX001 (ip), vehicle: carboxymethylcellulose (CMC) 101 % of control | dose: 250.0 mg/kg/injection, schedule: Q01DX001 (ip), vehicle: carboxymethylcellulose (CMC) 91 % of control | dose: 375.0 mg/kg/injection, schedule: Q01DX001 (ip), vehicle: carboxymethylcellulose (CMC) 91 % of control | dose: 500.0 mg/kg/injection, schedule: Q01DX001 (ip), vehicle: carboxymethylcellulose (CMC) 101 % of control | dose: 750.0 mg/kg/injection, schedule: Q01DX001 (ip), vehicle: carboxymethylcellulose (CMC) 91 % of control | dose: 1000.0 mg/kg/injection, schedule: Q01DX001 (ip), vehicle: carboxymethylcellulose (CMC) 93 % of control | dose: 1500.0 mg/kg/injection, schedule: Q01DX001 (ip), vehicle: carboxymethylcellulose (CMC) 98 % of control

N#CC(Cc1ccccc1)c1ccccc1 (centres undefined)
inactive: [7] 97 % of control | [1] 106 % of control | [2] 101 % of control

CCOC(=O)C1CC2(SCCS2)C(C(=O)O)CC12SCCS2 (centres undefined)
inactive: dose: 100.0 mg/kg/injection, schedule: Q04DX003 (ip), vehicle: other 103 % of control | dose: 200.0 mg/kg/injection, schedule: Q04DX003 (ip), vehicle: other 92 % of control | dose: 400.0 mg/kg/injection, schedule: Q04DX003 (ip), vehicle: other 97 % of control

CCOC(=O)C1CC(=O)c2c1ccc1ccccc21 (centres undefined)
inactive: dose: 75.0 mg/kg/injection, schedule: Q01DX001 (ip), vehicle: other 105 % of control | dose: 150.0 mg/kg/injection, schedule: Q01DX001 (ip), vehicle: other 97 % of control | dose: 300.0 mg/kg/injection, schedule: Q01DX001 (ip), vehicle: other 96 % of control

O=C(OCCCl)C1C2CCC(O2)C1C(=O)OCCCl (centres undefined)
inactive: dose: 1.56 mg/kg/injection, schedule: Q04DX002 (ip), vehicle: Klucel (hydroxypropylcellulose) (HPC) 103 % of control

CC1=CC(=O)N(CO)C1=O
inactive: dose: 25.0 mg/kg/injection, schedule: Q04DX003 (ip), vehicle: water 94 % of control | dose: 50.0 mg/kg/injection, schedule: Q04DX003 (ip), vehicle: water 98 % of control

CCOC(=O)C1=NN(c2ccccc2)C(=O)C1N=Nc1c(Br)cc(S(N)(=O)=O)cc1Br (centres undefined)
inactive: [1] 96 % of control | [2] 101 % of control | [3] 98 % of control

O=[N+]([O-])c1ccc(NC(c2ccccc2)c2ccc3cccnc3c2O)cc1 (centres undefined)
inactive: [1] 89 % of control | [2] 95 % of control | [3] 91 % of control

Cc1cc(OC(=O)Nc2ccccc2C)ccc1Cl
inactive: [4] 111 % of control | [5] 103 % of control | [6] 118 % of control

CCCCCCCCCCCC(=O)[O][Pb]([CH2]C)([CH2]C)[CH2]C
inactive: dose: 6.25 mg/kg/injection, schedule: Q04DX003 (ip), vehicle: saline with Tween-80 101 % of control | dose: 12.5 mg/kg/injection, schedule: Q04DX003 (ip), vehicle: saline with Tween-80 102 % of control | dose: 100.0 mg/kg/injection, schedule: Q04DX003 (ip), vehicle: saline with Tween-80 106 % of control

C=C=C[P+](c1ccccc1)(c1ccccc1)c1ccccc1
inactive: dose: 5.0 mg/kg/injection, schedule: Q01DX001 (ip), vehicle: saline 104 % of control | dose: 10.0 mg/kg/injection, schedule: Q01DX001 (ip), vehicle: saline 98 % of control | dose: 20.0 mg/kg/injection, schedule: Q01DX001 (ip), vehicle: saline 101 % of control | dose: 40.0 mg/kg/injection, schedule: Q01DX001 (ip), vehicle: saline 124 % of control

C=C1CC[N+]2(CC(=O)c3ccc(Br)cc3)CCCC12 (centres undefined)
inactive: dose: 12.5 mg/kg/injection, schedule: Q01DX001 (ip), vehicle: saline 92 % of control | dose: 25.0 mg/kg/injection, schedule: Q01DX001 (ip), vehicle: saline 92 % of control | [7] 101 % of control

O=C(CCCCCCCCC(=O)c1ccc2ccccc2c1O)c1ccc2ccccc2c1O
inactive: dose: 100.0 mg/kg/injection, schedule: Q01DX001 (ip), vehicle: Klucel (hydroxypropylcellulose) (HPC) 87 % of control | dose: 100.0 mg/kg/injection, schedule: Q01DX009 (ip), vehicle: Klucel (hydroxypropylcellulose) (HPC) 94 % of control | dose: 200.0 mg/kg/injection, schedule: Q01DX001 (ip), vehicle: Klucel (hydroxypropylcellulose) (HPC) 89 % of control | dose: 200.0 mg/kg/injection, schedule: Q01DX009 (ip), vehicle: Klucel (hydroxypropylcellulose) (HPC) 91 % of control | dose: 400.0 mg/kg/injection, schedule: Q01DX001 (ip), vehicle: Klucel (hydroxypropylcellulose) (HPC) 105 % of control | dose: 400.0 mg/kg/injection, schedule: Q01DX009 (ip), vehicle: Klucel (hydroxypropylcellulose) (HPC) 96 % of control

CC(=O)OCC1OC(N2C(=O)/C(=C/c3c(Cl)cccc3Cl)SC2=S)C(OC(C)=O)C(OC(C)=O)C1OC(C)=O (centres undefined)
inactive: dose: 25.0 mg/kg/injection, schedule: Q01DX005 (ip), vehicle: other 103 % of control | dose: 50.0 mg/kg/injection, schedule: Q01DX005 (ip), vehicle: other 101 % of control | dose: 100.0 mg/kg/injection, schedule: Q01DX005 (ip), vehicle: other 104 % of control | dose: 200.0 mg/kg/injection, schedule: Q01DX005 (ip), vehicle: other 93 % of control

CC(=O)OC1CCC2(C)C(=CCC3C2CCC2(C)C3CC(Br)C2C(C)=O)C1 (centres undefined)
inactive: dose: 100.0 mg/kg/injection, schedule: Q04DX003 (ip), vehicle: Klucel (hydroxypropylcellulose) (HPC) 107 % of control | dose: 200.0 mg/kg/injection, schedule: Q04DX003 (ip), vehicle: Klucel (hydroxypropylcellulose) (HPC) 88 % of control | dose: 400.0 mg/kg/injection, schedule: Q04DX003 (ip), vehicle: Klucel (hydroxypropylcellulose) (HPC) 103 % of control

COC(=O)C(CC(C)C)NC(=O)C(CC(N)=O)NC(=O)C(NC(=O)OCc1ccccc1)C(C)C (stereo not drawn) (Cbz-Val-Asn-Leu-OMe; configuration not given here)
inactive: [1] 95 % of control | [2] 91 % of control | [3] 91 % of control

CCS(=O)(=O)/C=C/c1ccco1
inactive: dose: 12.5 mg/kg/injection, schedule: Q04DX003 (ip), vehicle: carboxymethylcellulose (CMC) 98 % of control | dose: 25.0 mg/kg/injection, schedule: Q04DX003 (ip), vehicle: carboxymethylcellulose (CMC) 95 % of control

Source: PubChem BioAssay AID248 (DTP/NCI, 2004)
